Test results taken from patent US4826845A, “3(2H)-pyridazinones and pharmaceutical compositions thereof” (Richter Gedeon Vegyeszeti Gyar T.R., priority 1985, dated 1989).
Where a name gives a salt, the structure may show the parent alone. Read-outs that look alike come from different tables or passages of the source.

Tests used:
[1] = test system: pressor (blood pressure increasing) effect of epinephrine; experiment: Inhibition of the pressor effect of epinephrine; conditions: in vivo
Acute toxicity in mice = conditions: mouse, in vivo
Text: Male and female CFY rats and mice were used.

[2] = test system: adrenergic receptor-mediated calcium channel; experiment: Calcium-antagonism on isolated portal vein: adrenergic receptor-mediated calcium channel; assay type: cell-based; conditions: rat portal vein, 1×10^-5 mole norepinephrine, 37° C.; read-out: Inhibition of the calcium channel, adrenergic receptor-mediated, IC50
Procedure: (§1) The calcium-antagonism of the compounds of the invention was studied on an isolated vessel preparation based on the work of M. Fiol de Cuneo et al. [Arch. Int. Pharmacodyn.
(§2) Male CFY rats with a body-weight of 150 to 200 g were bled by decapitation and the portal vein was immediately prepared starting from the hepatic portal. The vessel was longitudinally incised, bound to a transducer registering the contractions and incubated under a tension of 1 g at 37° C. in a calcium-free Krebs-Ringer bicarbonate solution aerated with carbogen. After an equilibration lasting for 30 minutes, the functioning of the receptor-mediated and the K^+ -depolarisation-mediated calcium channels, respectively, were investigated.
(§3) All measurements were carried out at 37° C. while bubbling through carbogen.

conscious SH rats [3] = experiment: Antihypertensive effect on conscious, spontaneously hypertensive (SH) rats after oral administration; assay type: in vivo, rat
Text: The systolic blood pressure was indirectly measured by the tail-cuff method. The compounds to be tested were introduced orally (p.o.) to the animals. The blood pressure measurements were made by using a 5-channel automatized equipment.

[4] = test system: postsynaptic alpha1 receptor; experiment: Kinetic analysis on rabbit aorta strip preparation: postsynaptic alpha1 receptor antagonism; assay type: cell-based
Procedure: Male rabbits with a body-weight of 3 to 3.5 kg were used for these experiments. […] A dose response curve was plotted by using norepinephrine and a dose selected from the steepest interval of the curve was added repeatedly to the bath until obtaining equal responses. Then, the compound to be tested was added and after 5 minutes, the dose series of norepinephrine was repeated. The extent of the inhibition was expressed as percentage.

[5] = test system: conscious renal hypertensive rats; experiment: Antihypertensive effect on conscious renal hypertensive rats after acute oral treatment; assay type: in vivo, rat
Text: (§4) These experiments were accomplished on conscious spontaneously hypertensive (SH) and renally hypertensive rats.
(§5) The systolic blood pressure and heart rate of the animals were indirectly measured by using the tail-cuff method by means of a 5- channel automatized equipment.

conscious SH rats [6] = experiment: Antihypertensive effect on conscious SH rats after acute oral treatment; assay type: in vivo, rat
Text: as §4, §5

anaesthetized dogs = experiment: Hypotensive and heart rate effects on anaesthetized dogs after intravenous or intraduodenal administration; assay type: in vivo, Beagle dog
Procedure: Beagle dogs of both sexes were anaesthetized by the intravenous administration of 40 mg/kg of sodium pentobarbital. A cannula was introduced to the femoral artery and vein each on one side for the intravenous administration of the compounds to be tested as well as for measuring the blood pressure.
In an other series of these experiments, the substances were administered through a duodenal tube. Similarly to the experiments carried out on cats, the systemic arterial blood pressure was measured by using an electromanometer and the cardiotachometer was triggered by the heart rate wave sign. […]

[7] = test system: pre- and postsynaptic alpha receptors; experiment: Action on the pre- and postsynaptic adrenergic alpha receptors on the stimulated mouse vas deferens; assay type: cell-based
Procedure: The method of Hughes et al. [Brit. J. Phamacol. 51, pp. 139-140P (1975)] was used. The preparations suspended in a modified Krebs solution at 31° C. were excited by the field stimulation method [rectangular paired impulses with 1 msec interval, supramaximal potential (70 to 75 V=8 to 9 V/cm) and 100 msec impulse interval, pairs repeated in each 10 sec]. After stimulation, norepinephrine (NE) was dropped into the organ bath and a dose-response curve was taken up. Thus, the effect of both the endogenous norepinephrine liberated by stimulation and the exogenous norepinephrine could be studied before and after adding the substance to be tested.

[8] = target: T1, potential-mediated calcium channel (Rattus norvegicus, UniProt P22002); experiment: Calcium-antagonism on isolated portal vein: potential-mediated calcium channel; assay type: cell-based; conditions: rat portal vein, 80 millimoles KCl, 37° C.; read-out: Inhibition of the calcium channel, potential-mediated, IC50
T1 construct: from tissue; host or cells: isolated rat portal vein
Procedure: as §1, §2
For investigating the potential-mediated calcium channel, the vein placed in the calcium-free Krebs-Ringer solution was washed by adding and then by removing 80 millimoles of potassium chloride while maintaining the isotania until no contraction appeared on repeatedly adding potassium chloride.
as §3

anaesthetized cats = experiment: Hypotensive and heart rate effects on anaesthetized cats after intravenous or intraduodenal administration; assay type: in vivo, cat
Procedure: The cats were anaesthetized by intraperitoneally administering 35 mg/kg of sodium pentobarbital while promoting the spontaneous respiration by the introduction of a trachea cannula. On one side, the femoral vessels are cannulated. The cannula introduced to the femoral vein was used for the intravenous administration of the compounds to be tested. The arterial cannula was connected with a Hellige electromanometer by using a Statham P 23 Db transducer for measuring the mean arterial pressure. The heart rate was continuously registered by means of a cardiotachometer triggered by the pulse wave sign of the electromanometer.
In an other series of these experiments, the compound to be tested was administered through a duodenal tube. The compound of Example 3 (or 12) was used in intravenous doses of 0.5, 1.0 and 5.0 mg/kg as well as in intraduodenal doses of 1.25, 5.0 and 10.0 mg/kg.

SH rats = experiment: Subacute treatment of SH rats; assay type: in vivo, rat
Procedure: as §5
The subacute experiments were carried out on SH rats by administering daily twice a 3 mg/kg intraperitoneal dose for 14 days.

T1 sequence (P22002 whole entry): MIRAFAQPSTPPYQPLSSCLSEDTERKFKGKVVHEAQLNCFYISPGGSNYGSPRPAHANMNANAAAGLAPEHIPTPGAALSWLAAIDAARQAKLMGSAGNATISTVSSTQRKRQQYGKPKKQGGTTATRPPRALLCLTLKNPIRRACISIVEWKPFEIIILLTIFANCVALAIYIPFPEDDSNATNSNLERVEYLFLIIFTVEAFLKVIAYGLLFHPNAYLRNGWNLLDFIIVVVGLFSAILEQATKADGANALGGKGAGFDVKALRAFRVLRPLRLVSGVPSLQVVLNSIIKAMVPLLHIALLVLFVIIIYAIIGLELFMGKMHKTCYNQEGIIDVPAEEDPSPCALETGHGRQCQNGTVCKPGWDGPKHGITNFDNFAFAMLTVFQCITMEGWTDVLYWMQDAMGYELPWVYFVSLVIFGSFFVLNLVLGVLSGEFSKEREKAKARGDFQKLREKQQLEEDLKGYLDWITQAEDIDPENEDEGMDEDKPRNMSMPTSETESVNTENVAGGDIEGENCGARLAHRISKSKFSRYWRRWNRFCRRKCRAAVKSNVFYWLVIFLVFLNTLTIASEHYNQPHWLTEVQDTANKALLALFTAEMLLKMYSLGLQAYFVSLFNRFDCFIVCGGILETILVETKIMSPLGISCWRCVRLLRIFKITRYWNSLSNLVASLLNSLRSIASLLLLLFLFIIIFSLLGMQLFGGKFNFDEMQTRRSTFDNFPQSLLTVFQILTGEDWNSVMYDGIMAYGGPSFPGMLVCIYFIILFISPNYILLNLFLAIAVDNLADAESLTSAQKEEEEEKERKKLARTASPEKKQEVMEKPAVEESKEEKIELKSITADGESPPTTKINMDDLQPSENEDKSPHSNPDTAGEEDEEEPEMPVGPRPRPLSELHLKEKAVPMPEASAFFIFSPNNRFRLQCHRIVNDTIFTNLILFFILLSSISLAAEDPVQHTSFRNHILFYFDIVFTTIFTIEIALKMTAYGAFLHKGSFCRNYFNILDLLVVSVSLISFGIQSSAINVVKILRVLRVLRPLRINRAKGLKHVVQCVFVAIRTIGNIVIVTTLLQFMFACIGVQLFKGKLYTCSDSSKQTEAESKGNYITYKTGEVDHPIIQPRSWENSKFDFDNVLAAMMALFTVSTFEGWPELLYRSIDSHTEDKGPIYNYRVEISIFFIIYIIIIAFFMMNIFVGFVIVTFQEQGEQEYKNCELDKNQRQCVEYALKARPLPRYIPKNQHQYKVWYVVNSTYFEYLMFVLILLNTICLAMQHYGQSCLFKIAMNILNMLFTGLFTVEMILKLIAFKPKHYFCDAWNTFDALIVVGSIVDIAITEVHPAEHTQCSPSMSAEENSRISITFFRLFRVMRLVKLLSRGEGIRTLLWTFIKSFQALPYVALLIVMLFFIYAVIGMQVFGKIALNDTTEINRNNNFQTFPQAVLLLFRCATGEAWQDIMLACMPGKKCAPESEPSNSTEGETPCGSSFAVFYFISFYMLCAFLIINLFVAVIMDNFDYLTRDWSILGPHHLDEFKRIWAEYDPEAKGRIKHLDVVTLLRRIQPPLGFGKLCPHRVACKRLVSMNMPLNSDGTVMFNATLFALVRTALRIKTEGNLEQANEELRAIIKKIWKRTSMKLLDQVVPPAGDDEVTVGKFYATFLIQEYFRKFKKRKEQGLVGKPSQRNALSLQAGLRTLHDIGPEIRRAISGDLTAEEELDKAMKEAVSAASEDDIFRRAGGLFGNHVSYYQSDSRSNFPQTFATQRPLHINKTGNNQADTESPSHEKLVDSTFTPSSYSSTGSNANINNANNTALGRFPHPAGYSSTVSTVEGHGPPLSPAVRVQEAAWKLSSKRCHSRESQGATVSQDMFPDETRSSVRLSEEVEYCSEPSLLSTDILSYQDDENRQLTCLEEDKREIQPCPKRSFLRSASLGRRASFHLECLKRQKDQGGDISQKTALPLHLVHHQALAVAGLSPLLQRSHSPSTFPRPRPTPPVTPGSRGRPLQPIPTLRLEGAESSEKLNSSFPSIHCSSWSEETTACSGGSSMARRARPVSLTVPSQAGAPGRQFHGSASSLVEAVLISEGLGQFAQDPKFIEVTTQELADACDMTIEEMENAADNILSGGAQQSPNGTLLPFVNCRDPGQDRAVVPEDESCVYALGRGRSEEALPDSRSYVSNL
T1 sequence (P54290 25-944 partner limits assumed): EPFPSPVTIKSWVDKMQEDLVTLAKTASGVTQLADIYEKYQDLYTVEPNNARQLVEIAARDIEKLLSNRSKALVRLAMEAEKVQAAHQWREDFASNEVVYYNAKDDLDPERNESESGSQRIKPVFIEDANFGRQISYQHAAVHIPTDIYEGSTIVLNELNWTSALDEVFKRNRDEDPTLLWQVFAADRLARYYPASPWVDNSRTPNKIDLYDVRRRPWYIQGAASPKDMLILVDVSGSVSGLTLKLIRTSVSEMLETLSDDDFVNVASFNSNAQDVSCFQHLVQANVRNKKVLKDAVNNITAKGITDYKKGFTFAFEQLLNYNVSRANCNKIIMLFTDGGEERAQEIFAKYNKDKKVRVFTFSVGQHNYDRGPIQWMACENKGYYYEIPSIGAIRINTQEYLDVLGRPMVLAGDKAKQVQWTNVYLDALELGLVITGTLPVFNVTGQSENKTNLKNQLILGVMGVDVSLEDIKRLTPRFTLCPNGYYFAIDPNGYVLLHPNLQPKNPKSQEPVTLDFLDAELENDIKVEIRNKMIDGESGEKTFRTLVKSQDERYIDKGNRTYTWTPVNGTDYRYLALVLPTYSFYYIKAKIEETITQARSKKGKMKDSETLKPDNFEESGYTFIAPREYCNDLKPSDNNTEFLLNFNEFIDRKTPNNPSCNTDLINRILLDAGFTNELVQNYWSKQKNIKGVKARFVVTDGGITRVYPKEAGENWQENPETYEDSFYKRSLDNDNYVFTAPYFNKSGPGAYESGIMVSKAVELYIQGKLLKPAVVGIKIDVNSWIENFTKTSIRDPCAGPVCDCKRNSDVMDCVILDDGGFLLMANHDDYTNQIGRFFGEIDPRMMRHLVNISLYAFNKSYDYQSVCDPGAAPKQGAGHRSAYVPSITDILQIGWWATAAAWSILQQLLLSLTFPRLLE
T1 sequence (P54290 945-1091 partner limits assumed): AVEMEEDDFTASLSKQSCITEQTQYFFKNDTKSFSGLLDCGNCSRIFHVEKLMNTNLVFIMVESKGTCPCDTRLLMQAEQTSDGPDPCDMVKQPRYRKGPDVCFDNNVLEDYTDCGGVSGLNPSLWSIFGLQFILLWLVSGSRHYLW

O=c1cccnn1CCCNCC1COc2ccccc2O1 (stereo not drawn) [Example 3 (or 12), 2-[3-(benzo[1,4]dioxan-2-yl-methylamino)-1-propyl]-3(2H)-pyridazinone hydrochloride]
inhibition of the pressor effect of epinephrine (in words) [1]: significant inhibition | LD50 at 336 h (Acute toxicity in mice; ip, female, i.p., read-out: LD50 i.p.): 160 mg/kg | LD50 at 336 h (Acute toxicity in mice; ip, male, i.p., read-out: LD50 i.p.): 160 mg/kg | LD50 at 336 h (Acute toxicity in mice; po, female, p.o., read-out: LD50 p.o.): 200 mg/kg | LD50 at 336 h (Acute toxicity in mice; po, male, p.o., read-out: LD50 p.o.): 300 mg/kg | IC50 [2]: 400 nM | Decrease in the systolic blood pressure (conscious SH rats [3]; 6.25 mg/kg p.o.): -18% | Decrease in the systolic blood pressure (conscious SH rats [3]; 12.5 mg/kg p.o.): -25% | Decrease in the systolic blood pressure (conscious SH rats [3]; 25 mg/kg p.o.): -32% | pA2 ([4]; negative logarithm of the molar antagonist concentration inhibiting the agonist to 50%, norepinephrine agonist, 5 min): 7.26 | Slope of the curve ([4]; rabbit aorta, norepinephrine): -1.26 | maximum antihypertensive effect ([5]; 3.125 mg/kg p.o.): 16% | maximum antihypertensive effect ([5]; 12.5 mg/kg p.o.): 24% | antihypertensive effect in the 8th hour (in words) ([5]; 25 mg/kg p.o., 8th hour): significant even in the 8th hour | tachycardia ([5]; p.o.): 18% | time of disappearance of tachycardia (in words) ([5]; p.o.): disappeared in the 2nd to 3rd hours after the treatment | hypotension up to the 5th hour (conscious SH rats [6]; SH rats, 6.25 mg/kg p.o., up to 5th hour): 16% | antihypertensive effect (conscious SH rats [6]; SH rats, 6.25 mg/kg p.o., within one hour): 29% | dose dependence of level and duration of the antihypertensive effect (in words) (conscious SH rats [6]; SH rats, 6.25, 12.5 or […] p.o.): increased by increasing the doses | heart rate alteration (in words) (conscious SH rats [6]; SH rats, p.o.): no significant heart rate alteration | decrease in the systemic arterial blood pressure (anaesthetized dogs; 1.0 mg/kg i.v.): 50% | half-life of the effect (anaesthetized dogs; 1.0 mg/kg i.v.): 30 min | heart rate effect (in words) (anaesthetized dogs; 1.0 mg/kg i.v.): bradycardia was observed during the first 5 minutes, then the alteration was not significant | decay of the hypotensive effect (in words) (anaesthetized dogs; 1.0 mg/kg intraduodenal): only halved at the end of the first hour | decrease in the systemic arterial blood pressure (anaesthetized dogs; 1.0 mg/kg intraduodenal): 30% | tachycardia (anaesthetized dogs; 1.0 mg/kg intraduodenal): about 20% | time maximum effect remained constant (anaesthetized dogs; 1.0 mg/kg intraduodenal): 30 min | time of maximum effect (anaesthetized dogs; 1.0 mg/kg intraduodenal): 5 min | hypotensive activity compared with verapamil (in words) (anaesthetized dogs; any of the two routes): higher than that of verapamil | hypotensive activity compared with prazosine (in words) (anaesthetized dogs; intraduodenal): reached that of prazosine | hypotensive effect (in words) (anaesthetized dogs; intravenous and intraduodenal): strong hypotensive effect | Inhibition of the stimulation ([7]; concentration 10^-7 mole): 0% | Inhibition of the stimulation ([7]; concentration 10^-8 mole): 0% | IC50 [8]: 500 nM | duration of hypotension (anaesthetized cats; 0.5 mg/kg i.v.): 60 min | half-life of hypotension (anaesthetized cats; 0.5 mg/kg i.v.): about 30 minutes | heart rate effect (in words) (anaesthetized cats; 0.5 mg/kg i.v.): accompanied by bradycardia | hypotension (anaesthetized cats; 0.5 mg/kg i.v.): 50% | maximum of the hypotension, intravenous versus intraduodenal (anaesthetized cats; 1.0 mg/kg i.v. versus 1.25 mg/kg intraduodenal): nearly equal | decrease in the blood pressure (anaesthetized cats; 1.25 mg/kg intraduodenal): 50% | duration of hypotension (detected up to) (anaesthetized cats; 1.25 mg/kg intraduodenal): up to 2 hours | time of development of hypotension (anaesthetized cats; 1.25 mg/kg intraduodenal): ≤ 15 min | heart rate effect (in words) (anaesthetized cats; intraduodenal): significantly diminished | effect on the following days; tachyphylaxia (in words) (SH rats; 3 mg/kg i.p. twice daily for 14 days): not altered on the following days of treatment. No signs of tachyphylaxia were observed | maximum antihypertensive effect (SH rats; 3 mg/kg i.p. twice daily, 10th day): 22%
